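Five compound concentrations were applied to cells in 96-well plates for 48 hours; endpoints were derived by simple linear interpolation of the resulting dose-response curve. TGI marks complete inhibition of growth.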

The record followed here is PubChem BioAssay (NCI).

Holding throughout (assay): NCI tumour cell line growth inhibition, 48 h
The test system of assay [1] is HS 578T breast.
In assay [2] the test system is NCI/ADR-RES ovarian.
Assay [3] has as its system NCI-H23 lung.
For assay [4], the system named is DU-145 prostate.
Assay [5] relates to SK-MEL-2 melanoma.
Assay [6] relates to EKVX NSCLC.
Assay [7] has as its system OVCAR-5 ovarian.
The test system of assay [8] is SF-268 CNS.
In assay [9] the test system is LOX IMVI melanoma.
For assay [10], the system named is HCC-2998 colon.
Assay [11] deals with RPMI-8226 leukemia.

For `COC(=O)N1CC[C@@H]2CCC=C(c3cccc4c3OCO4)[C@@H]21`, the TGI in assay [1], in assay [2], in [3], in assay [4], in [5] and in [6] was above 100 µM in each case. Also, the TGI in [7], in assay [8], in assay [9] and in assay [10] was above 100 µM each time.

On to `CC1=NN(c2nc(N)nc(CS(C)(=O)=O)n2)C(C)(C)C1`, for which the TGI in [1], in assay [2], in assay [3], in [4], in assay [5] and in assay [6] was above 100 µM each time. Also, the TGI in [11], in assay [8], in assay [9] and in assay [10] was above 100 µM throughout.

As for `Nc1[nH]c(=O)nc2sc3c(c12)CCCC3`, the TGI in assay [1] was 71.9 µM; in assay [2], above 100 µM; in assay [3] it was above 100 µM; in assay [4], above 100 µM; in assay [5], above 100 µM; in assay [6], above 100 µM. The TGI in assay [7], in assay [11], in assay [8] and in [10] was above 100 µM in each case.

`COc1ccc(-c2cc(-c3ccccc3)n(C3OC(COC(C)=O)C(OC(C)=O)C(OC(C)=O)C3OC(C)=O)c(=S)c2C#N)cc1` (centres undefined): the TGI was 23.5 µM in assay [1]; 50.5 µM in assay [2]; 47.7 µM in assay [3]; 23.9 µM in assay [4]; 31.9 µM in [6]; 29.2 µM in assay [7]. The TGI in [11] is 16.7 µM; in [8], 58.2 µM; in assay [9], above 100 µM; in assay [10] it was above 100 µM.

On to `COc1cc(/C=C2\C(=O)N(c3cccc(Cl)c3)C(c3ccccc3)S2(=O)=O)cc(OC)c1OC` (centres undefined), for which the TGI in [1], in [2], in [3], in assay [4], in assay [5] and in [6] was above 100 µM throughout. Also, the TGI in assay [7] is above 100 µM; in assay [11], 80.1 µM; in assay [8], above 100 µM; in [9], 97.2 µM; in assay [10] it was above 100 µM.

As for `CC(C)(C)OC(=O)N1C(C2=COc3ccccc3O2)=COc2ccccc21`, the TGI was above 100 µM in assay [1]; 82.3 µM in [2]; 95.1 µM in assay [3]; 78.2 µM in [4]; 53.2 µM in assay [5]; 52.3 µM in assay [6]. Besides, the TGI is 99.1 µM in assay [7]; 43.5 µM in [11]; 64.4 µM in assay [8]; 37.3 µM in assay [9]; 37.2 µM in assay [10].

`COc1ccc(C2CCc3nc4nc(N)nc(N)c4cc3C2)cc1` (centres undefined): the TGI is above 100 µM in assay [1]; above 100 µM in [2]; above 100 µM in assay [4]; 42.3 µM in assay [5]; above 100 µM in [6]; above 100 µM in assay [7]. In addition, the TGI in [11] was above 100 µM; in assay [8], above 100 µM; in assay [9], 30 µM; in assay [10], above 100 µM.

With `COc1cc(Cn2c3c(c4c(CN(C)C)c(O)ccc42)C(=O)c2ccccc2C3=O)cc(OC)c1`, the TGI in assay [1] is 43.9 µM; in assay [2] it was 34.8 µM; in assay [3] it was 29.1 µM; in [4], above 100 µM; in [5] it was 29.8 µM; in assay [6], 40.4 µM. For the same compound, the TGI was 42.5 µM in assay [7]; 41.5 µM in assay [11]; 27.9 µM in assay [8]; 40.6 µM in assay [9]; 34.5 µM in [10].

For the compound `c1ccc(Cc2cccc3cc(-c4ccc(-c5ccccc5)cc4)[nH]c23)cc1`, the TGI in assay [1] was 84 µM; in assay [2] it was above 100 µM; in assay [3], above 100 µM; in assay [4], above 100 µM; in assay [5], above 100 µM; in assay [6], above 100 µM. The TGI in assay [7], in [11], in assay [8], in assay [9] and in assay [10] was above 100 µM throughout.

Turning to `ON=C1CCCCC(=NO)CCCC1`, the TGI in [1], in [2], in [3], in [4], in assay [5] and in assay [11] was above 100 µM throughout. The TGI in [8], in [9] and in assay [10] was above 100 µM each time.

As to `COc1cc(N=C(N)N=C(N)N)c2ncccc2c1`, the TGI in assay [1], in [2], in assay [3], in assay [4], in [5] and in assay [6] was above 100 µM in each case. Also, the TGI in [7], in assay [8], in [9] and in [10] was above 100 µM each time.

Consider `CCOC(=O)C(Cc1ccc2c(c1)CCC2)(Cc1ccc2c(c1)CCC2)C(=O)OCC`, for which the TGI in assay [1], in [2], in assay [3], in assay [4], in assay [5] and in assay [6] was above 100 µM each time. The TGI in assay [7], in assay [11], in assay [8], in assay [9] and in assay [10] was above 100 µM each time.

In the case of `C/C(Cl)=N\OC(=O)Nc1ccc([N+](=O)[O-])cc1`, the TGI in assay [1] turned out to be 72.5 µM; in assay [2], 29.3 µM; in assay [3], 49.9 µM; in [4] it was 31.8 µM; in assay [5], 32.5 µM; in assay [6] it was 35.2 µM. Moreover, the TGI was found to be 30.8 µM in assay [7], 41.8 µM in assay [8], 9.93 µM in assay [9] and 29.8 µM in [10].
